Reference: PubChem BioAssay AID1197 (NMMLSC, 2008)
Active and inactive are the calls of the source. How the calls were made is not given here.

What was measured:
[1] = LNCaP cell killing by flow cytometry event count, dose response, cytotoxicity control for prostate cell differentiation activator project (AID 1197); conditions: LNCaP cell loss, flow cytometry event count, 4 d; at 30 µM (top of the series)
[2] = system: LNCaP cell loss, flow cytometry event count, 4 d; assay: as above

SMILES	event count (lower = more killing) [1]	EC50 [2]
Cc1ccc(Nc2cc(=O)n(C3CCCCC3)c(=O)[nH]2)cc1C	55.5% (inactive)	
COc1ccc(CCN2CCC(Nc3nc4ccccc4n3Cc3ccc(F)cc3)CC2)cc1		3.74 µM
COc1ccccc1N1CCN(c2nc3ccccc3nc2C(C#N)C(=O)OC(C)C)CC1 (stereo not drawn)		2.77 µM
Cc1cccc(-c2nsc(SCC(=O)Nc3nccs3)n2)c1	296% (inactive)	
CC(C)N1CCC2(CC1)N=C(c1ccc3c(c1)OCO3)CC(c1cc(Cl)ccc1O)N2 (stereo not drawn)		1.94 µM
CCOC(=O)c1ccccc1NC(=O)Cn1c(-c2nonc2N)nc2ccccc21	116% (inactive)	
CC1CCCCN1CCNC(=O)c1cc2c(-c3ccccc3F)nn(C)c2s1 (stereo not drawn)	103% (inactive)	
CC1CCCCN1CCNC(=O)c1ccc2c(=O)n(CCc3ccccc3)c(=O)[nH]c2c1 (stereo not drawn)	191% (inactive)	
COc1ccc(-c2oc3ncn(CCN4CCOCC4)c(=N)c3c2-c2ccc(OC)cc2)cc1		0.198 µM
Oc1c(CN2CCCCC2)cc(COCc2ccccc2)c2cccnc12	137% (inactive)	
COc1ccccc1N1CCN(Cc2cc(Br)c(O)c3ncccc23)CC1		0.351 µM
CCN(CCNC(=O)C1CCN(Cc2nc(-c3ccc(Cl)cc3)oc2C)CC1)c1ccccc1		8.33 µM
CCCc1cc(-c2n[nH]c(C)c2-c2ccc(C(=O)OCC)o2)c(O)cc1O	98.2% (inactive)	
CCOc1cccc2cc(-c3cn4cc(C)ccc4n3)c(=O)oc12	76.2% (inactive)	
Cc1cc(N2CCN(C)CC2)nc2ccc(NC(=O)c3ccc4c(c3)OCO4)cc12	80.5% (inactive)	
Cc1ccc(Cl)cc1N1CCN(C(=O)c2cc3c(=O)n(C)c4ccccc4c3n2C)CC1	26.8% (inactive)	
COc1ccc(N2CCN(CCCNC(=O)c3cc4sccc4n3C)CC2)cc1	282% (inactive)	
Cc1ccc(C)c(N2CCN(CCCNC(=O)Cn3cc4c(n3)CCCCC4)CC2)c1	71.8% (inactive)	
CCN1CCCC1CNC(=O)c1cc2c(-c3ccc(Cl)cc3)nn(C)c2s1 (stereo not drawn)	27.8% (inactive)	
CCn1c(=N)n(CC(O)COc2cccc(C)c2)c2ccccc21 (stereo not drawn)	275% (inactive)	
CN1CCN(CCCNC(=O)c2cc3c(-c4ccc(Cl)cc4)nn(C)c3s2)CC1		12.6 µM (inactive)
CCN1CCN(CCNC(=O)C2CCN(Cc3nc(-c4ccc(Cl)cc4)oc3C)CC2)CC1	83.2% (inactive)	

SMILES	event count (lower = more killing) [1]	EC50 [2]
O=C(NCCCN1CCN(c2ccc(F)cc2)CC1)c1cccc(N2CCCC2=O)c1	191% (inactive)	
CN(CCNC(=O)C1CC(=O)N(c2ccc(F)c(Cl)c2)C1)Cc1ccccc1 (stereo not drawn)	343% (inactive)	
O=C(Cn1cc2c(n1)CCCC2)NCCCN1CCN(c2ccccc2F)CC1	333% (inactive)	
CCN(CCNC(=O)C1CCN(Cc2nc(-c3cccc(Cl)c3)oc2C)CC1)c1ccccc1		3.07 µM
Cc1oc(-c2ccc(Cl)cc2)nc1CN1CCC(C(=O)NCCCN2CCOCC2)CC1		6.27 µM
Cc1ccc(CNc2nc3ccccc3n3nnnc23)cc1	128% (inactive)	
COc1ccc(Cc2nc(-c3ccc(-n4cccc4)cc3)no2)cc1OC	104% (inactive)	
CCN1CCCC1CNC(=O)C1CCN(Cc2nc(-c3cccc(Br)c3)oc2C)CC1 (stereo not drawn)		6.68 µM
Cc1noc(/C=C/c2ccco2)c1S(=O)(=O)N1CCC(C(=O)N2CCc3ccccc3C2)CC1		4.53 µM
CN1CCN(c2cc3c(c4c2[nH]c2ccccc24)C(=O)CC(C)(C)C3)CC1	48.8% (inactive)	
COc1ccc(-c2noc(CCC(=O)NCCCN3CCC(Cc4ccccc4)CC3)n2)cc1		15.6 µM (inactive)
Clc1ccc(COC(Cn2ccnc2)c2ccc(Cl)cc2Cl)cc1 (stereo not drawn)	223% (inactive)	
Cc1ccccc1-c1nc(CN2CCC(C(=O)NCCCN3CCCC3)CC2)c(C)o1	76.5% (inactive)	
COc1ccc2cc3cc(C(=O)Nc4ccccc4N4CCN(C)CC4)oc3nc2c1		19.3 µM (inactive)
COc1ccc(N2CCN(CCCNC(=O)CC3Oc4ccc(C)cc4NC3=O)CC2)cc1 (stereo not drawn)	343% (inactive)	
Cn1c(=O)cc(SCC(=O)NCCCN2CCN(c3ccccc3F)CC2)c2ccccc21	258% (inactive)	
CCCN(CCC)CCNC(=O)C1CCN(Cc2nc(-c3ccc(Cl)cc3)oc2C)CC1		15.7 µM (inactive)
C[C@H]1CCC/C=C/C2C[C@H](O)CC2[C@H](O)/C=C/C(=O)O1 (stereo partly drawn)	12.8% (inactive)	
Cc1oc(-c2ccc(Cl)cc2)nc1CN1CCC(C(=O)N2CCN(Cc3ccccc3)CC2)CC1	91.8% (inactive)	
CCOC(=O)c1[nH]c(C)c(C(=O)N2CCc3ccccc32)c1C		0.888 µM
CC(C)(C)c1ccc(C(O)CCCN2CCC(C(O)(c3ccccc3)c3ccccc3)CC2)cc1 (stereo not drawn)	23.5% (inactive)	
CCN(CC)CCCNC(=O)c1cc2c(-c3ccc(Cl)cc3)nn(C)c2s1	22.2% (inactive)	

SMILES	event count (lower = more killing) [1]	EC50 [2]
CCCS(=O)(=O)N1CCCC(C(=O)NCCCN2CCN(c3ccc(F)cc3)CC2)C1 (stereo not drawn)	238% (inactive)	
CN(C)c1ccc(CNC2CC(C)(C)NC(C)(C)C2)cc1	284% (inactive)	
Nc1ccc(-n2ccnc2)cc1	282% (inactive)	
CCOc1ccc(NC(=O)COc2nsnc2N2CCCCC2)cc1	160% (inactive)	
O=C(NCCCN1CCN(c2cccc(Cl)c2)CC1)c1cccc(N2CCCC2=O)c1	305% (inactive)	
N=c1n(CCN2CCCCC2)c2ccccc2n1CC(O)COc1ccccc1 (stereo not drawn)		19.2 µM (inactive)
CCOC(=O)c1c(C)[nH]c(C(=O)COC(=O)C2CC2C)c1C (stereo not drawn)		0.166 µM
O=c1cc(-c2ccccc2)[nH]c2ccccc12	83.8% (inactive)	
O=C(CCN1C(=O)COc2ccccc21)NCCCN1CCN(c2ccc(F)cc2)CC1	279% (inactive)	
Cn1nc(-c2ccc(Cl)cc2)c2cc(C(=O)NCCCN3CCOCC3)sc21		14.5 µM (inactive)
CCCOc1ccccc1C1CC(=O)Nc2cc3c(cc21)OCO3 (stereo not drawn)	21.8% (inactive)	
CCN(CC)CCNC(=O)c1cc2c(-c3ccc(Cl)cc3)nn(C)c2s1	140% (inactive)	
Cc1ccccc1-c1nc(CN2CCC(C(=O)NCc3cccnc3)CC2)c(C)o1	295% (inactive)	
CCOc1ccc(-c2cc(C(=O)NCCCN3CCN(CC)CC3)c3ccccc3n2)cc1		21.7 µM (inactive)
CCn1c(=O)cc(SCC(=O)NCCCN2CCN(c3ccccc3F)CC2)c2ccccc21	210% (inactive)	
Cc1ccc(OCC(O)Cn2c(=N)n(CCN3CCCCC3)c3ccccc32)cc1 (stereo not drawn)		8.65 µM
Cc1ccccc1CS(=O)(=O)CCC(=O)NCCCN1CCN(c2ccccc2F)CC1		6.85 µM
CN(CC(O)COc1ccc(OCC(O)CN(C)C2CCCCC2)cc1)C1CCCCC1 (stereo not drawn)	126% (inactive)	
CCN1CCN(c2cc(C)c3cc(NC(=O)c4ccc(Br)o4)ccc3n2)CC1	55.2% (inactive)	
Cc1nc2ncnn2c(C)c1CCC(=O)NCCCN1CCN(c2cccc(Cl)c2)CC1	374% (inactive)	
COc1ccccc1NC(=O)c1nc[nH]c1C(=O)Nc1ccccc1OC	87.2% (inactive)	
COc1ccc(CCn2c(=N)c(C(=O)NCc3ccco3)cc3c(=O)n4ccccc4nc32)cc1	37.8% (inactive)	

SMILES	event count (lower = more killing) [1]	EC50 [2]
CCOC(=O)c1c(C)n(C)c2ccc(OCC(O)CNC(CC)CO)cc12 (stereo not drawn)	115% (inactive)	
CCN1CCN(C(c2cccs2)C(C)NS(=O)(=O)c2ccc(Br)cc2)CC1 (stereo not drawn)	282% (inactive)	
Cc1cc(C)nc(N2CCC(C(=O)Nc3ccc(Oc4ccccc4)cc3)CC2)n1	170% (inactive)	
CCN(CC)CC(=O)Nc1ccc(-c2nc3cc(NC(=O)CN(CC)CC)ccc3o2)cc1	98.5% (inactive)	
COC(=O)c1cc(-c2ccccc2)sc1NC(=O)c1cc(C)on1	394% (inactive)	
Cn1c(C(=O)NCCCN2CCN(c3cccc(Cl)c3)CC2)cc2c(=O)n(C)c3ccccc3c21	137% (inactive)	
Cn1c(=O)[nH]c(=O)c2c1nc(Br)n2CCCSc1nc2ccccc2o1	150% (inactive)	
CN(C)CCCN1c2ccccc2CCc2ccc(Cl)cc21	32.2% (inactive)	
COc1ccc(-c2ccc(-c3noc(-c4ccccc4)n3)c(OC)n2)cc1	153% (inactive)	
O=S1(=O)C=C(Sc2nc3ccccc3s2)c2ccccc21	150% (inactive)	
CCN(CC)CCNC(=O)c1ccc(N2CCCCC2)c(NS(=O)(=O)c2ccc(C)cc2)c1	70.8% (inactive)	
Cc1ccccc1-c1nc(CN2CCCC(C(=O)NCCCN3CCOCC3)C2)c(C)o1 (stereo not drawn)	187% (inactive)	
CCOc1ccccc1NC(=O)c1nc[nH]c1C(=O)Nc1ccccc1OCC	257% (inactive)	
Cc1ccc2c(c1)-c1c(cnn1CC(=O)Nc1ccccc1N1CCN(C)CC1)CO2	163% (inactive)	
Cc1cc(N2CCN(C)CC2)nc2ccc(NC(=O)c3ccc(Br)o3)cc12	422% (inactive)	
O=C(c1ccccc1)c1ccc(N2CCNCC2)cc1	236% (inactive)	
COc1cc2nc(N3CCN(C(=O)C4COc5ccccc5O4)CC3)nc(N)c2cc1OC (stereo not drawn)	104% (inactive)	
CCn1c(=O)cc(SCC(=O)NCCN2CCN(Cc3ccccc3)CC2)c2ccccc21	306% (inactive)	
Cc1ccccc1-c1nc(CN2CCC(C(=O)NCCCN3CC(C)CC(C)C3)CC2)c(C)o1 (stereo not drawn)	108% (inactive)	
Cc1ccccc1-c1nc(CN2CCC(C(=O)NCCCN3CCOCC3)CC2)c(C)o1	109% (inactive)	
CCN1CCN(c2ncc(C(=O)Nc3cc(Cl)c(OC)cc3OC)c3ccccc23)CC1	208% (inactive)	
COc1ccc(N2CCN(CCCNC(=O)CCCn3c(=O)[nH]c4ccsc4c3=O)CC2)cc1	175% (inactive)	
